Source: patent publication US9850272B2, “Therapeutically active estratrienthiazole derivatives as inhibitors of 17.beta-hydroxy-steroid dehydrogenase, type 1” (FORENDO PHARMA LTD, priority 2013, dated 2017)
Structures can show the parent of a compound that is named as a salt. Where two headings read alike, the source gives them in different places.

Legend:
[1] = biological target: T1, Recombinant Human 17β-HSD1 (Homo sapiens, UniProt P14061); assay: Inhibition of recombinant human 17β-HSD1 (conversion of 3H-estrone to estradiol, HPLC); assay type: biochemical; details: read-out: 17β-HDS1 Inhibition % at 1 μM
T1 construct: made in house; host or cells: Sd9 (Sf9) insect cells, baculovirus (Bac to Bac Expression System)
T1 sequence (P14061 1-328): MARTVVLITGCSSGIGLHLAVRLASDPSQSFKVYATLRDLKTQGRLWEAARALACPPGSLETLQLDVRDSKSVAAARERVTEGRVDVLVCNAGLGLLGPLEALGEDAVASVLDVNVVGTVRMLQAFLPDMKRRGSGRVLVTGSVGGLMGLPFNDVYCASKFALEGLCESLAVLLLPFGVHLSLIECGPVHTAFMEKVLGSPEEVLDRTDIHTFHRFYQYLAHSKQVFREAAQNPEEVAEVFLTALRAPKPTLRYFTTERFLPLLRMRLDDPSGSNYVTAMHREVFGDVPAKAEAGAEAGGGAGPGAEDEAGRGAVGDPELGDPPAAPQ
Description: 17β-HSD1 Production and Isolation:
Recombinant baculovirus was generated by the “Bac to Bac Expression System” (Invitrogen). Recombinant bacmid was transfected to Sd9 insect cells using “Cellfectin Reagent” (Invitrogen). 60 h later cells were harvested; the microsomal fraction was isolated as described by Puranen, T. J., Poutanen, M. H., Peltoketo, H. E., Vihko, P. T. and Vihko, R. K. (1994) Site-directed mutagenesis of the putative active site of human 17 β-hydroxysteroid dehydrogenase type 1. Biochem. J. 304: 289-293. Aliquots were stored frozen until determination of enzymatic activity.
Assay—Inhibition of Recombinant Human 17β-HSD1:
Recombinant protein (1 μg/ml) was incubated in 20 mM KH2PO4 pH 7.4 with 30 nM estrone (including 800.000 cpm/ml of ^3H-estrone) and 1 mM NADPH for 30 min at RT, in the presence of the potential inhibitor at concentrations 1 μM or 0.1 μM. Inhibitor stock solutions were prepared in DMSO. Final concentration of DMSO was adjusted to 1% in all samples. The enzyme reaction was stopped by addition of 10% trichloroacetic acid (final concentration). Samples were centrifuged in a microtiter plate at 4000 rpm for 10 min. Supernatants were applied to reverse phase HPLC on a Waters Symmetry C18 column, equipped with a Waters Sentry Guard column. Isocratic HPLC runs were performed at RT at a flow rate of 1 ml/min in acetonitrile:water 48:52 as running solvent. Radioactivity was monitored in the eluate by a Packard Flow Scintillation Analyzer. Total radioactivity for estrone and estradiol were determined in each sample and percent conversion of estrone to estradiol was calculated according to the following formula:
(§1) Percent inhibition was calculated flowingly: % inhibition=100−% conversion

[2] = biological target: T2, Recombinant Human 17β-HSD2 (Homo sapiens, UniProt P37059); assay: Inhibition of recombinant human 17β-HSD2 (conversion of 3H-estradiol to estrone, HPLC); assay type: biochemical; details: read-out: 17β-HSD2 Inhibition % at 1 μM
T2 construct: made in house; host or cells: Sd9 (Sf9) insect cells, baculovirus (Bac to Bac Expression System)
T2 sequence (P37059 1-387): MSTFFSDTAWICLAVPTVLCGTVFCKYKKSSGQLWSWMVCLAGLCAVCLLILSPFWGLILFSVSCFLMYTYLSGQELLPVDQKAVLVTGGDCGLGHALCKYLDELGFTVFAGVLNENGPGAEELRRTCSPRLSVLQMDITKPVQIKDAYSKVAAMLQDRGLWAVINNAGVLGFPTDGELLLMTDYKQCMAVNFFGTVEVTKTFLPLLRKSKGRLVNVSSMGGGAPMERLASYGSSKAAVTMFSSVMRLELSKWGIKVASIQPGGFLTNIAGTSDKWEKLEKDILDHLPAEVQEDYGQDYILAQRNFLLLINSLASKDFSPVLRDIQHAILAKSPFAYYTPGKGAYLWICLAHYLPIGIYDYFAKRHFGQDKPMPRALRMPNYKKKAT
Description: 17β-HSD2 Production and Isolation:
Similarly to 17β-HSD1 the Recombinant baculovirus was generated by the “Bac to Bac Expression System” (Invitrogen). Recombinant bacmid was transfected to Sd9 insect cells using “Cellfectin Reagent” (Invitrogen). 60 h later cells were harvested and supernatant were fractionated by the following protocol: • cells were dissolved into 40 ml of A-buffer (40 mM TRIS, pH8.0, 20% glycerol, 20 μM NAD, 0.4 mM PMSF, 150 mM NaCl, 0.5% dodecyl-β-maltoside+protease inhibitor cocktail) • cells were sonicated • lysate was incubated on ice for 15 min • lysate was centrifuged 5000 rpm 15 min, +4° C. • centrifugation of the supernatant 180.000 g 30 min, +4° C. • pellet was dissolved into 8 ml of A-buffer • not resuspended material was removed by centrifugation 5000 rpm 15 min, +4° C. • the clear supernatant was divided into 100 μl aliquots and were stored frozen until determination of enzymatic activity.
The amount of 17β-HSD2 was analysed by immunoblotting and total protein concentration of each extract batch was determined.
Assay—Inhibition of Recombinant Human 17β-HSD2:
Recombinant protein (4 μg/ml) was incubated in 20 mM KH2PO4 pH 8.5 with 50 nM estradiol (including 800.000 cpm/ml of ^3H-estradiol) and 1 mM NADH for 30 min at RT, in the presence of the potential inhibitor at concentrations 1 μM or 0.1 μM. Inhibitor stock solutions were prepared in DMSO. Final concentration of DMSO was adjusted to 1% in all samples. The enzyme reaction was stopped by addition of 10% trichloroacetic acid (final concentration). Samples were centrifuged in a microtiter plate at 4000 rpm for 10 min. Supernatants were applied to reverse phase HPLC on a Waters Symmetry C18 column, equipped with a Waters Sentry Guard column. Isocratic HPLC runs were performed at RT at a flow rate of 1 ml/min in acetonitrile:water 48:52 as running solvent. Radioactivity was monitored in the eluate by a Packard Flow Scintillation Analyzer. Total radioactivity for estrone and estradiol were determined in each sample and percent conversion of estradiol to estrone was calculated according to the following formula:
as §1

[3] = inhibitor at 1 μM, 30 nM estrone, 1 mM NADPH, 30 min at RT
[4] = inhibitor at 1 μM, 50 nM estradiol, 1 mM NADH, 30 min at RT

Row | SMILES | inhibition at 1 µM [1, 3] [%] | inhibition at 1 µM [2, 4] [%] | inhibition at 1 µM [1] [%] | inhibition at 1 µM [2] [%]
1 | Cc1cnc(NC(=O)CC[C@@H]2C[C@H](OC(=O)CCC(=O)O)[C@@]3(C)CCC4c5ccc(O)cc5CCC4C23)s1 (stereo partly drawn) [Compound 43, Succinic acid mono-{(13S,15R,17S)-3-hydroxy-13-methyl-15-[2-(5-methylthiazol-2-ylcarbamoyl)-ethyl]-17-oxo-7,8,9,11,12,13,14,15,16,17-decahydro-6H-cyclopenta[a]phenanthren-17-yl}ester] | 97 | 1 | – | –
2 | Cc1cnc(NC(=O)CC[C@@H]2C[C@H](OC(=O)CCC(=O)O)[C@@]3(C)CCC4c5ccc(O)cc5CCC4C23)s1 (some centres unmarked) [Compound 44, sodium salt] | – | – | 94 | 2
3 | COc1ccc2c(c1)CCC1C2CC[C@@]2(C)C1[C@H](CCC(=O)Nc1ncc(C)s1)C[C@@H]2OP(=O)(O)O (stereo partly drawn) [Compound 46, Phosphoric acid mono-{(13S,15R,17S)-3-methoxy-13-methyl-15-[2-(5-methylthiazol-2-ylcarbamoyl)-ethyl]-17-oxo-7,8,9,11,12,13,14,15,16,17-decahydro-6H-cyclopenta[a]phenanthren-17-yl}ester] | 84 | 1 | – | –
4 | Cc1cnc(NC(=O)CC[C@@H]2C[C@H](OP(=O)(O)O)[C@@]3(C)CCC4c5ccc(O)cc5CCC4C23)s1 (some centres unmarked) [Compound 60] | 74 | 0 | – | –
5 | Cc1cnc(NC(=O)CC[C@@H]2CC(O)[C@@]3(C)CCC4c5ccccc5CCC4C23)s1 (stereo partly drawn) [Compound 67, 3-((13S,15R)-17-Hydroxy13-methyl-7,8,9,11,12,13,14,15,16,17-decahydro-6H-cyclopenta[a]phenanthren-15-yl)-N-(5-methylthiazol-2-yl)propanamide] | 74 | 30 | – | –
6 | Cc1cnc(NC(=O)CC[C@@H]2C[C@H](O)[C@@]3(C)CCC4c5ccc(O)c(NC(C)C)c5CCC4C23)s1 (stereo partly drawn) [Compound 71, 3-((13S,15R,17S)-3,17-Dihydroxy-4-isopropylamino-13-methyl-7,8,9,11,12,13,14,15,16,17-decahydro-6H-cyclopenta[a]phenanthren-15-yl)-N-(5-methylthiazol-2-yl)propionamide] | 49 | 10 | – | –
7 | Cc1cnc(NC(=O)CC[C@@H]2C[C@H](O)[C@@]3(C)CCC4c5ccc(O)c(NC(C)CO)c5CCC4C23)s1 (stereo partly drawn) [Compound 72, 3-[(13S,15R,17S)-3,17-Dihydroxy-4-(2-hydroxy-1-methyl-ethylamino)-13-methyl-7,8,9,11,12,13,14,15,16,17-decahydro-6H-cyclopenta[a]phenanthren-15-yl]-N-(5-methylthiazol-2-yl)propionamide] | 50 | 0 | – | –
8 | Cc1cnc(NC(=O)CC[C@@H]2CC(NC(C)C)[C@@]3(C)CCC4c5ccc(O)cc5CCC4C23)s1 (stereo partly drawn) [Compound 73, 3-[(13S,15R)-3-Hydroxy-17-isopropylamino-13-methyl-7,8,9,11,12,13,14,15,16,17-decahydro-6H-cyclopenta[a]phenanthren-15-yl]-N-(5-methylthiazol-2-yl)propionamide] | 86 | 11 | – | –
9 | Cc1cnc(NC(=O)CC[C@@H]2C[C@H](NCC(C)C)[C@@]3(C)CCC4c5ccc(O)cc5CCC4C23)s1 (stereo partly drawn) [Compound 74, 3-((13S,15R)-3-Hydroxy-17-isobutylamino-13-methyl-7,8,9,11,12,13,14,15,16,17-decahydro-6H-cyclopenta[a]phenanthren-15-yl]-N-(5-methylthiazol-2-yl)propionamide] | 80 | 2 | – | –
10 | Cc1cnc(NC(=O)CC[C@@H]2C[C@H](NCC(C)C)[C@@]3(C)CCC4c5cc(C(C)(C)C)c(O)cc5CCC4C23)s1 (stereo partly drawn) [Compound 75b, 3-((13S,15R)-2-tert-Butyl-3-Hydroxy-17-isobutylamino-13-methyl-7,8,9,11,12,13,14,15,16,17-decahydro-6H-cyclopenta[a]phenanthren-15-yl]-N-(5-methylthiazol-2-yl)propionamide] | 77 | 13 | – | –
